From patent publication US20080274544A1, “Promotor for Introducing Extracellular Substance into Mammalian Ovum and Introduction Method” (priority 2005, published 2008)
Entries after “also recorded” stand apart in the source; their conditions may differ.

Experiments:
[1] = tested on: mouse unfertilized oocytes with zona pellucida; assay: In vitro fertilization of oocytes with zona pellucida, fertilization efficiency; format: cell-based
Protocol: (§1) • (1) Mice of eight week-old or older were purchased and made adapted to grow environment for 1 week before use. PMS (Serotoropin exclusive to animal, manufactured by ASUKA Pharmaceutical) was injected in an amount of 0.1 ml into the abdominal cavity of the mouse at 8:00 pm. • (2) 48 hr later, HCG (Gonadotropin exclusive to animal, manufactured by ASUKA Pharmaceutical) was injected in an amount of 0.1 ml into the abdominal cavity. • (3) Mice were euthanized the next day (14 to 16 hr after HCG injection), and the ampulla of oviduct was removed. An oocyte surrounded by cumulus cells was collected and cultured in a (100 μL) drop of TYH medium. • (4) Cumulus cells were removed by hyaluronidase (300 μg/mL) treatment, then the oocyte was cultured in TYH medium for 3 hr. In the case of conducting removal of zona pellucida, oocyte zona pellucida was removed by an acid Tyrode's solution treatment followed by culturing the oocyte in TYH medium for 3 hr. 2. Treatment with a Tubulin-Polymerization Inhibitor
(§2) The collected unfertilized oocyte of the mice was treated by using vinblastine (VB) as a tubulin-polymerization inhibitor. As controls, an oocyte treated with paclitaxel (Pac; Brand Name: taxol), tubulin-polymerization promoter, and an untreated oocyte (control) were used. Vinblastine (VB) treatment was conducted by culturing the oocyte in 20 μM of vinblastine solution (TYH medium) for 1 hr, while paclitaxel (Pac) treatment was conducted by culturing the oocyte in 10 μM of paclitaxelel (Pac) solution (TYH medium) similarly for 1 hr.
The mouse unfertilized oocyte was treated with vinblastine (VB), a tubulin-polymerization inhibitor, and in vitro fertilization was conducted with mouse sperm. As controls, an unfertilized oocyte treated with paclitaxel (Pac; Brand Name: taxol), tubulin-polymerization promoter, and an untreated oocyte (control) were used. […]

[2] = tested on: zona pellucida-free mouse unfertilized oocytes; assay: In vitro fertilization of zona pellucida-free oocytes, sperm-oocyte fusion; format: cell-based; settings: for number of sperm which fused with the oocytes: zona pellucida-free oocytes, 1 hr after insemination, oocytes cultured 1 hr in 20 μM vinblastine or 10 μM paclitaxel, compared with untreated control (FIG. 1)
Protocol: as §1, §2
The mouse unfertilized oocyte was treated with vinblastine (VB), a tubulin-polymerization inhibitor, and in vitro fertilization was conducted with mouse sperm. […]
(In the case where zona pellucida-free oocytes were use): To quantify sperm-oocyte fusion efficiency, zona pellucida-free mouse unfertilized oocytes were treated with vinblastine (VB), a tubulin-polymerization inhibitor, or paclitaxel (Pac), tubulin-polymerization promoter, or left untreated (control). […]

| Compound | increase of fertilization efficiency compared to untreated oocytes ([1]; 2-cell-stage oocytes, oocytes cultured 1 hr in 20 μM vinblastine (FIG. 2)) | fusion efficiency of oocytes treated with anti-mouse CD9 antibody having a fusion-inhibitory effect ([1]; vinblastine treatment together with anti-mouse CD9 antibody) | fusion of immature oocytes with sperm ([1]; vinblastine-treated immature oocytes) | number of sperm which fused with the oocytes [2] | sperm-oocyte membrane fusion ([2]; mouse unfertilized oocyte treated with tubulin-polymerization promoter) |
| --- | --- | --- | --- | --- | --- |
| CC[C@]1(O)C[C@@H]2CN(CCc3c([nH]c4ccccc34)[C@@](C(=O)OC)(c3cc4c(cc3OC)N(C)[C@H]3[C@@](O)(C(=O)OC)[C@H](OC(C)=O)[C@]5(CC)C=CCN6CC[C@]43[C@@H]65)C2)C1 [vinblastine] | 20% | increased | could be fused with sperm; also recorded: could fuse with sperm | largest number |  |
| CC(=O)O[C@H]1C(=O)[C@@]2(C)[C@H]([C@H](OC(=O)c3ccccc3)[C@]3(O)C[C@H](OC(=O)[C@H](O)[C@@H](NC(=O)c4ccccc4)c4ccccc4)C(C)=C1C3(C)C)[C@]1(OC(C)=O)CO[C@@H]1C[C@@H]2O [paclitaxel] |  |  |  | not fused | inhibited |
